Data taken from ChEMBL document CHEMBL1201862, “PubChem BioAssay data set” (2004).
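Cells were grown in 96-well plates and exposed to each compound for 48 hours at five concentrations; endpoints were interpolated linearly between bracketing concentrations, or set to the highest concentration if not reached. GI50: concentration for 50% inhibition of growth.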 Active and inactive are the calls of the source. Rule as the data show it: active = GI50 up to about 1.1 µM and inactive = higher.

Experiments:
Assay in all cases: inhibition of tumour cell growth, NCI panel, 48 h
NCI/ADR-RES = test system: NCI/ADR-RES
OVCAR-8 = test system: OVCAR-8
PC-3 = test system: PC-3
DU-145 = test system: DU-145
MOLT-4 = test system: MOLT-4
UACC-257 = test system: UACC-257
HCT-15 = test system: HCT-15
HT-29 = test system: HT-29
CAKI-1 = test system: CAKI-1
HOP-62 = test system: HOP-62
ACHN = test system: ACHN
COLO 205 = test system: COLO 205
MCF7 = test system: MCF7
SF-295 = test system: SF-295
MDA-MB-435 = test system: MDA-MB-435
SNB-75 = test system: SNB-75
T47D = test system: T47D
Hs-578T = test system: Hs-578T
OVCAR-3 = test system: OVCAR-3

SMILES | GI50 (NCI/ADR-RES) | GI50 (OVCAR-8) | GI50 (PC-3) | GI50 (DU-145) | GI50 (MOLT-4) | GI50 (UACC-257) | GI50 (HCT-15) | GI50 (HT-29) | GI50 (CAKI-1) | GI50 (HOP-62) | GI50 (ACHN) | GI50 (COLO 205) | GI50 (MCF7) | GI50 (SF-295) | GI50 (MDA-MB-435) | GI50 (SNB-75) | GI50 (T47D) | GI50 (Hs-578T) | GI50 (OVCAR-3)
CC(C)(C)CNC(=O)NCn1cc(-c2ccccc2)nn1 | > 100 µM (inactive) | > 100 µM (inactive) | > 100 µM (inactive) | > 100 µM (inactive) | > 100 µM (inactive) | > 100 µM (inactive) | > 100 µM | > 100 µM (inactive) | > 100 µM (inactive) | > 100 µM (inactive) | > 100 µM (inactive) | > 100 µM (inactive) | > 100 µM (inactive) | > 100 µM (inactive) | – | – | – | – | –
O=[N+]([O-])/C=C(\CS(=O)(=O)c1ccccc1)c1ccc2c(c1)OCO2 | 19.7 µM (inactive) | 60.1 µM (inactive) | – | 38.9 µM (inactive) | 67.9 µM (inactive) | – | 37.2 µM | 53.1 µM (inactive) | 29.2 µM (inactive) | 92.9 µM (inactive) | 45.6 µM (inactive) | 53.5 µM (inactive) | 48.2 µM (inactive) | 36.7 µM (inactive) | 23.8 µM (inactive) | > 100 µM (inactive) | > 100 µM (inactive) | 38.1 µM (inactive) | 28.4 µM (inactive)
COc1ccc(CNc2nc3cc(C(F)(F)F)ccc3nc2C(=O)O)cc1OC | 34 µM (inactive) | 42.6 µM (inactive) | 27.5 µM (inactive) | 41.4 µM (inactive) | 22.8 µM (inactive) | 34.2 µM (inactive) | 29.4 µM | 35.6 µM (inactive) | 28.6 µM (inactive) | 22 µM (inactive) | 26.1 µM (inactive) | 22.5 µM (inactive) | 23.2 µM (inactive) | 34 µM (inactive) | 26.7 µM (inactive) | 47.9 µM (inactive) | 37.8 µM (inactive) | – | 22.3 µM (inactive)
CN(C)CCCNC(=O)c1c(-c2cccnc2)cnc2ccccc12 | > 100 µM (inactive) | > 100 µM (inactive) | > 100 µM (inactive) | > 100 µM (inactive) | > 100 µM (inactive) | > 100 µM (inactive) | > 100 µM | > 100 µM (inactive) | > 100 µM (inactive) | > 100 µM (inactive) | > 100 µM (inactive) | > 100 µM (inactive) | > 100 µM (inactive) | > 100 µM (inactive) | – | 14.9 µM (inactive) | – | – | > 100 µM (inactive)
CC(C)(CO)NC(=O)c1cccc(C(=O)NC(C)(C)CO)c1Br | > 100 µM (inactive) | > 100 µM (inactive) | > 100 µM (inactive) | > 100 µM (inactive) | > 100 µM (inactive) | > 100 µM (inactive) | > 100 µM | > 100 µM (inactive) | > 100 µM (inactive) | > 100 µM (inactive) | > 100 µM (inactive) | > 100 µM (inactive) | > 100 µM (inactive) | – | > 100 µM (inactive) | 32.3 µM (inactive) | > 100 µM (inactive) | – | –
O=c1[nH]n(Cc2ccccc2Cl)c2ccccc12 | > 100 µM (inactive) | > 100 µM (inactive) | > 100 µM (inactive) | > 100 µM (inactive) | > 100 µM (inactive) | 38.9 µM (inactive) | > 100 µM | > 100 µM (inactive) | > 100 µM (inactive) | > 100 µM (inactive) | > 100 µM (inactive) | > 100 µM (inactive) | – | – | > 100 µM (inactive) | 45.5 µM (inactive) | – | > 100 µM (inactive) | 73.1 µM (inactive)
S=C(c1c[nH]c2ccccc12)N1CCN(Cc2ccccc2)CC1 | 17 µM (inactive) | 19.1 µM (inactive) | 15.7 µM (inactive) | 17.5 µM (inactive) | 16.6 µM (inactive) | 20.7 µM (inactive) | 13.6 µM | 16.5 µM (inactive) | 20.1 µM (inactive) | 18.5 µM (inactive) | 25.5 µM (inactive) | 16.5 µM (inactive) | 22.2 µM (inactive) | 14.8 µM (inactive) | 15.5 µM (inactive) | 15.5 µM (inactive) | – | 17.4 µM (inactive) | 14.4 µM (inactive)
CCc1ccc(Nc2cc(=O)[nH]c(SCc3ccccc3)n2)cc1 | 74.1 µM (inactive) | 44.9 µM (inactive) | – | > 100 µM (inactive) | > 100 µM (inactive) | > 100 µM (inactive) | > 100 µM | > 100 µM (inactive) | > 100 µM (inactive) | 32.5 µM (inactive) | 50.7 µM (inactive) | > 100 µM (inactive) | > 100 µM (inactive) | 46.2 µM (inactive) | > 100 µM (inactive) | 30.3 µM (inactive) | > 100 µM (inactive) | > 100 µM (inactive) | 39.4 µM (inactive)
COc1ccc(-c2nc(SCC(=O)NNC(=S)Nc3ccccc3)[nH]c2-c2ccc(OC)cc2)cc1 | 74.5 µM (inactive) | 39.9 µM (inactive) | 25.8 µM (inactive) | 28.7 µM (inactive) | 3.46 µM (inactive) | 20.8 µM (inactive) | 22.2 µM | 35.2 µM (inactive) | 34.3 µM (inactive) | 18.6 µM (inactive) | 24.5 µM (inactive) | 15.3 µM (inactive) | 20.5 µM (inactive) | 19.1 µM (inactive) | 18.2 µM (inactive) | 24.9 µM (inactive) | 16.6 µM (inactive) | – | 14.3 µM (inactive)
CC(C)c1ccccc1SC1CC(=O)CC(Sc2ccccc2C(C)C)C12O[C@H](c1ccccc1)[C@@H](c1ccccc1)O2 (some centres not stated) | 47 µM (inactive) | 35.4 µM (inactive) | 58.9 µM (inactive) | 76.2 µM (inactive) | 23.4 µM (inactive) | > 100 µM (inactive) | 31.7 µM | 58.5 µM (inactive) | 26.3 µM (inactive) | > 100 µM (inactive) | 30.3 µM (inactive) | 71.6 µM (inactive) | 34 µM (inactive) | > 100 µM (inactive) | 22.6 µM (inactive) | – | 28.6 µM (inactive) | – | 32.2 µM (inactive)
CC12CCC(C(=O)O1)C(C)(C)O2 (configuration not stated) | > 100 µM (inactive) | > 100 µM (inactive) | > 100 µM (inactive) | – | > 100 µM (inactive) | > 100 µM (inactive) | > 100 µM | > 100 µM (inactive) | > 100 µM (inactive) | > 100 µM (inactive) | > 100 µM (inactive) | – | > 100 µM (inactive) | > 100 µM (inactive) | > 100 µM (inactive) | > 100 µM (inactive) | – | > 100 µM (inactive) | > 100 µM (inactive)
CC1C(OC2O[C@@H]3O[C@@]4(C)CC[C@H]5[C@H](C)CC[C@@H](C2C)[C@@]35O4)O[C@@H]2O[C@@]3(C)CC[C@H]4[C@H](C)CC[C@@H]1[C@@]24O3 (some centres not stated) | – | > 50 µM (inactive) | > 50 µM (inactive) | > 50 µM (inactive) | > 50 µM (inactive) | > 50 µM (inactive) | > 50 µM | > 50 µM (inactive) | > 50 µM (inactive) | > 50 µM (inactive) | 1.65 µM (inactive) | > 50 µM (inactive) | > 50 µM (inactive) | > 50 µM (inactive) | > 50 µM (inactive) | > 50 µM (inactive) | > 50 µM (inactive) | > 50 µM (inactive) | > 50 µM (inactive)
COCn1cnc2c(=O)nc(SC)n(-c3ccccc3)c21 | > 100 µM (inactive) | > 100 µM (inactive) | – | > 100 µM (inactive) | > 100 µM (inactive) | > 100 µM (inactive) | > 100 µM | > 100 µM (inactive) | > 100 µM (inactive) | > 100 µM (inactive) | > 100 µM (inactive) | > 100 µM (inactive) | > 100 µM (inactive) | > 100 µM (inactive) | > 100 µM (inactive) | > 100 µM (inactive) | > 100 µM (inactive) | > 100 µM (inactive) | > 100 µM (inactive)
C1=CC2C(C3CN(c4ccccc4)N=C13)C1C3C4C=CC21C=CC43 (configuration not stated) | > 100 µM (inactive) | > 95.3 µM (inactive) | > 100 µM (inactive) | – | > 100 µM (inactive) | > 100 µM (inactive) | > 100 µM | > 100 µM (inactive) | > 100 µM (inactive) | > 100 µM (inactive) | > 100 µM (inactive) | > 100 µM (inactive) | > 100 µM (inactive) | > 100 µM (inactive) | > 100 µM (inactive) | > 65.3 µM (inactive) | 0.189 µM (active) | > 100 µM (inactive) | > 100 µM (inactive)
CCC1=NC(N/N=C/c2ccco2)=N/C1=C\c1ccco1 | > 100 µM (inactive) | > 100 µM (inactive) | > 100 µM (inactive) | > 100 µM (inactive) | > 100 µM (inactive) | > 100 µM (inactive) | > 100 µM | > 100 µM (inactive) | > 100 µM (inactive) | > 100 µM (inactive) | > 100 µM (inactive) | > 100 µM (inactive) | – | > 100 µM (inactive) | 52 µM (inactive) | – | > 100 µM (inactive) | > 100 µM (inactive) | –
C=C1CC(OC)(C(OC)C(=O)N(C)[C@H]2OCO[C@H]3C2O[C@H](C[C@@H](COC)OC)C(C)(C)C3OC)O[C@H](C)[C@@H]1C (some centres not stated) | 7.91 µM (inactive) | 8.43 µM (inactive) | – | – | 7.18 µM (inactive) | 11.6 µM (inactive) | 18 µM | 5.77 µM (inactive) | 5.69 µM (inactive) | > 91.6 µM (inactive) | – | 8.97 µM (inactive) | 5.3 µM (inactive) | 7 µM (inactive) | – | 4.4 µM (inactive) | – | – | 10 µM (inactive)
